Experimental data as given in patent US12458659B2, “Methods for treating macrophage-mediated diseases, and methods of identifying agents useful therefore” (The Regents of the University of California, priority 2019, dated 2025).

System: BMDM
Test: Mitochondrial membrane potential (TMRM)
Format: cell-based, mouse
Conditions: RSM932A-pretreated, LPS-primed; at least as effectively as CCCP
Method: Mitochondrial Function—Mitochondrial membrane potential (Ψm) was measured using TMRM (#T668, Life Technologies) according to manufacturer's instructions. Briefly, RSM932A-pretreated BMDM and shCtrl and shChoKα iBMDM were primed with LPS for 4 hr. Cells were stained with 200 nM TMRM for 30 min at 37° C., and then treated with CCCP (5 μM) for 5 min. After washing twice, fluorescence intensity was determined per manufacturer's instructions using a FilterMax F5 multimode plate reader (Molecular Devices), Mitochondrial reactive oxygen species (mtROS) was measured using MitoSOX (Invitrogen) as described (Zhong et al., 2016c). […] After washing with PBS, fluorescence intensity was determined at 510/580 nm using a FilterMax F5 plate reader. NAD^+/NADH ratio was measured using NAD^+/NADH Cell-Based Assay kit according to manufacturer's instructions (Cayman Chemical Company). […] Absorbance was measured at 450 nm using FilterMax F5 plate reader. Complex V ATP synthase activity was measured in mitochondria isolated from BMDM treated with LPS for 24 hr using Complex V Activity Assay kit (Cayman Chemical Company) according to manufacturer's instructions. Absorbance was measured at 340 nm at 30-second intervals for 30 min using a FilterMax F5 plate reader. Cellular ATP was measured after 24 hr LPS stimulation using CellTiter-Glo Luminescent Assay (Promega) as described (Ip et al., 2017). […]

For `C/[N+](c1ccc(Cl)cc1)=c1\ccn(Cc2ccc(-c3ccc(Cn4cc/c(=[N+](/C)c5ccc(Cl)cc5)c5ccccc54)cc3)cc2)c2ccccc12` [RSM932A], the “mitochondrial membrane potential (Ψm)” value was “reduced”.
